Data as given in ChEMBL document CHEMBL1201862, “PubChem BioAssay data set” (2004).
Active and inactive are the calls of the source. Rule as the data show it, for most assays here: actives have a measured IC50 and inactives only a lower limit.

Experiments:
DNA topoisomerase = DNA topoisomerase (Yersinia pestis, UniProt A0A2S9PM60); experiment: Yersinia topoisomerase I cleavage product accumulation – biochemical, cherry-pick, dose response (AID 588525)
[1] = target: G-protein coupled receptor 55 (Homo sapiens, UniProt Q9Y2T6); experiment: selective activators of receptor GPR55 – imaging, U2OS cells, beta-arrestin-GFP redistribution, primary screen (AID 1961); assay type: functional
[2] = target: T1, Acyl-homoserine lactone acylase PvdQ (Pseudomonas aeruginosa (strain LESB58), UniProt Q9I194); experiment: PvdQ acylase enzyme activity blockers – biochemical, fluorescence, plate reader and imaging, cherry-picks, dose response (AID 493231)
T1 sequence (Q9I194 whole entry): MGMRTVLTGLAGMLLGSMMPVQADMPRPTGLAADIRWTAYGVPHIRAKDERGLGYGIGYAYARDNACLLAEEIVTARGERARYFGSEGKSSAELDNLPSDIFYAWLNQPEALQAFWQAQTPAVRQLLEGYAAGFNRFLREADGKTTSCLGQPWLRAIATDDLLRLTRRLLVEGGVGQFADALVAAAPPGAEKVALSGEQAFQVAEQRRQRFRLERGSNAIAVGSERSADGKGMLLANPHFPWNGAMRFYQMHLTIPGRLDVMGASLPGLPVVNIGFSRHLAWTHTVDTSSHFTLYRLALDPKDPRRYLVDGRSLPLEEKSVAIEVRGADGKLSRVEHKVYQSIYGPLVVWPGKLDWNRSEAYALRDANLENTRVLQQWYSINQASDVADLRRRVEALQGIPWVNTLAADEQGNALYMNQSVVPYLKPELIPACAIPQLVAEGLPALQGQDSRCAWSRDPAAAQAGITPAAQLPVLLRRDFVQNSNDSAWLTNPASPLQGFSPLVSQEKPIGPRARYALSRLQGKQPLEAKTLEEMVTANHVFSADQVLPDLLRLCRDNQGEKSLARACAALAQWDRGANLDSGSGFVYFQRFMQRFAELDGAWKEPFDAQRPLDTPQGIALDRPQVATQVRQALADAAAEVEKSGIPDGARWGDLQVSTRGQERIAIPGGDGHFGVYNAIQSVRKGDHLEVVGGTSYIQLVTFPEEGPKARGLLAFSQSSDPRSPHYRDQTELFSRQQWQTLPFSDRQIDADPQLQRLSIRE

[3] = target: Neurotensin receptor type 1 (Homo sapiens, UniProt P30989); assay type: functional;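 also: Image-based confirmatory dose-response assay measuring agonist activity at NTR1; NTR1-expressing U2OS osteosarcoma cells imaged for beta-arrestin GFP spot formation; agonist potency where compounds increase beta-arrestin recruitment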
HeLa = experiment: toxicity to human HeLa cells – cell-based, 48 h, plate reader, cherry-picks, cytotoxicity control, dose response (AID 504942); assay type: functional
[4] = target: T2, Hepatocyte nuclear factor 4-alpha (Homo sapiens, UniProt P41235); assay type: functional, cell-based;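 also: biochemical luminescence-based dose-response counterscreen measuring inhibition of HNF4 dimerization, run alongside a screen for blockers of ABHD5–perilipin-5 interaction; split luciferase complementation of HNF4 fusion proteins in cell lysate measuring dimerization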
T2 sequence (P41235 whole entry): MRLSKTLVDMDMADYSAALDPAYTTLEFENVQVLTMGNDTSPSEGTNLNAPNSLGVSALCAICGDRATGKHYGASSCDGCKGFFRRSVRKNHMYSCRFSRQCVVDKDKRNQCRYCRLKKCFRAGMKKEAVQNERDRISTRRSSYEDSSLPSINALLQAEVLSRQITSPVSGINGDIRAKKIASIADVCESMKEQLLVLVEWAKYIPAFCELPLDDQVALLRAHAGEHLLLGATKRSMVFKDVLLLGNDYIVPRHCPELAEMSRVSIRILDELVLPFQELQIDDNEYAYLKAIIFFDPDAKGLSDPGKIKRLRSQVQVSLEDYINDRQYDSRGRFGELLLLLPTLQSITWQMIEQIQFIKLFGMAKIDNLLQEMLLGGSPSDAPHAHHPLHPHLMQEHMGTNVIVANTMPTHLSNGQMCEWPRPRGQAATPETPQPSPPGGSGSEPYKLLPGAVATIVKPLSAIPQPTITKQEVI

[5] = target: Latent membrane protein 1 (Human herpesvirus 4 (strain B95-8), UniProt P03230); experiment: LMP1 TES1 pathway selectivity over dsRED control – imaging, HEK293T, dual-color eGFP/dsRED, cherry-picks, selectivity assay for LMP1 NF-kB inhibitor project, dose response (AID 588398); assay type: functional, cell-based
[6] = target: T3, Sentrin-specific protease 8 (Homo sapiens, UniProt Q96LD8); experiment: inhibition of human SENP8 cleavage activity – biochemical, luminescence, SAR follow-up (AID 504501); assay type: functional
T3 sequence (Q96LD8 whole entry): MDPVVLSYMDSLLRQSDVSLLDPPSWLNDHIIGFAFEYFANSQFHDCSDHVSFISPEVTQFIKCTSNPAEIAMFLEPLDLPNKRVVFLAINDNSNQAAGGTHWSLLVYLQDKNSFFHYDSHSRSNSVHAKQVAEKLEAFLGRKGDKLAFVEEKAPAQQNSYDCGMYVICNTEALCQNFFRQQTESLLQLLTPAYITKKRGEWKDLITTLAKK

Caspase-3 [7] = target: T4, Caspase-3 (Homo sapiens, UniProt P42574); experiment: inhibition of recombinant caspase-3 activity – biochemical, luminescence, set 2, selectivity assay for SENP protease inhibitor project, SAR follow-up (AID 588599); assay type: functional
T4 sequence (P42574 whole entry): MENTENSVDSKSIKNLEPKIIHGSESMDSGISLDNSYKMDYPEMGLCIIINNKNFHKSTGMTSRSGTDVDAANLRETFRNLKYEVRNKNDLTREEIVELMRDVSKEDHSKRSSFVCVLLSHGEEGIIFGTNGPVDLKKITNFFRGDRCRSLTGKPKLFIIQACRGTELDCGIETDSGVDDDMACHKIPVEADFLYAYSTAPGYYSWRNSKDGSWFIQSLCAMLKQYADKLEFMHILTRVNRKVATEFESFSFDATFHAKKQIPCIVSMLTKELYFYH

[8] = target: T3, Sentrin-specific protease 8; experiment: inhibition of sentrin protease 8 – biochemical, luminescence, set 2, SAR follow-up (AID 588601); assay type: functional
Caspase-3 [9] = target: T4, Caspase-3; experiment: SAR Analysis of small molecule inhibitors of Sentrin-specific proteases (SENPs) using a Caspase-3 Selectivity assay. [Related pubchem assays (depositor defined):AID2540, AID2599, AID434973, AID489001]; assay type: functional
[10] = target: T5, Sentrin-specific protease 7 (Homo sapiens, UniProt Q9BQF6); experiment: inhibition of human SENP7 cleavage activity – biochemical, luminescence, set 2, SAR follow-up (AID 588600); assay type: functional
T5 sequence (Q9BQF6 whole entry): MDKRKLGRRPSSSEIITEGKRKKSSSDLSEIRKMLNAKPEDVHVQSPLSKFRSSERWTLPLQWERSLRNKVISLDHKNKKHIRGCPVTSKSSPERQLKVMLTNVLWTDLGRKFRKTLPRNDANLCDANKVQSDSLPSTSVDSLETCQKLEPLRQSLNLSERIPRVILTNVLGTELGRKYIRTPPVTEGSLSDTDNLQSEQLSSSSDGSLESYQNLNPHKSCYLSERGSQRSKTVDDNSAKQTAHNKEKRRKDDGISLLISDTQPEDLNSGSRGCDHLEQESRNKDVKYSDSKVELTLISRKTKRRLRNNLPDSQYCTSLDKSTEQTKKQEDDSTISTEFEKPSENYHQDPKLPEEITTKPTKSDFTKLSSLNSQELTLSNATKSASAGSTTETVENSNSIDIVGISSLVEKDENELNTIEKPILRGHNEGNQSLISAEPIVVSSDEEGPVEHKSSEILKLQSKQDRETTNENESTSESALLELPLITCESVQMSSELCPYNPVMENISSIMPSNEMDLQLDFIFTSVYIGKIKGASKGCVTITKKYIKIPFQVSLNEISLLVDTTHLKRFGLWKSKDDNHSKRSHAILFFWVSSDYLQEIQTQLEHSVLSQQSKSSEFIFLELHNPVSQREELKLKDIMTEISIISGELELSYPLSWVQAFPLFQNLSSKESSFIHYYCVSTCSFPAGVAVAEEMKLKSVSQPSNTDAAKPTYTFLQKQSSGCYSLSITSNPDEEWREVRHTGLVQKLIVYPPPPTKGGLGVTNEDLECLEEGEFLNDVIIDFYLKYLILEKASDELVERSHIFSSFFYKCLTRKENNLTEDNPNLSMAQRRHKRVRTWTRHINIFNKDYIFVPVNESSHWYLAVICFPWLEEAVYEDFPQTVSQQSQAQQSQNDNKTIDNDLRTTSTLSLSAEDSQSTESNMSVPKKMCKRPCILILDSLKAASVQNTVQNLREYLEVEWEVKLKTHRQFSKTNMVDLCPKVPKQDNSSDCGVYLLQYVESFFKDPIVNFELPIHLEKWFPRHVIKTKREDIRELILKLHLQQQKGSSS

[11] = target: T6, Sentrin-specific protease 6 (Homo sapiens, UniProt Q9GZR1); experiment: SAR Analysis of small molecule inhibitors of Sentrin-specific protease 6 (SENP6) using a Luminescent assay. [Related pubchem assays (depositor defined):AID2582, AID2599]; assay type: functional
T6 sequence (Q9GZR1 whole entry): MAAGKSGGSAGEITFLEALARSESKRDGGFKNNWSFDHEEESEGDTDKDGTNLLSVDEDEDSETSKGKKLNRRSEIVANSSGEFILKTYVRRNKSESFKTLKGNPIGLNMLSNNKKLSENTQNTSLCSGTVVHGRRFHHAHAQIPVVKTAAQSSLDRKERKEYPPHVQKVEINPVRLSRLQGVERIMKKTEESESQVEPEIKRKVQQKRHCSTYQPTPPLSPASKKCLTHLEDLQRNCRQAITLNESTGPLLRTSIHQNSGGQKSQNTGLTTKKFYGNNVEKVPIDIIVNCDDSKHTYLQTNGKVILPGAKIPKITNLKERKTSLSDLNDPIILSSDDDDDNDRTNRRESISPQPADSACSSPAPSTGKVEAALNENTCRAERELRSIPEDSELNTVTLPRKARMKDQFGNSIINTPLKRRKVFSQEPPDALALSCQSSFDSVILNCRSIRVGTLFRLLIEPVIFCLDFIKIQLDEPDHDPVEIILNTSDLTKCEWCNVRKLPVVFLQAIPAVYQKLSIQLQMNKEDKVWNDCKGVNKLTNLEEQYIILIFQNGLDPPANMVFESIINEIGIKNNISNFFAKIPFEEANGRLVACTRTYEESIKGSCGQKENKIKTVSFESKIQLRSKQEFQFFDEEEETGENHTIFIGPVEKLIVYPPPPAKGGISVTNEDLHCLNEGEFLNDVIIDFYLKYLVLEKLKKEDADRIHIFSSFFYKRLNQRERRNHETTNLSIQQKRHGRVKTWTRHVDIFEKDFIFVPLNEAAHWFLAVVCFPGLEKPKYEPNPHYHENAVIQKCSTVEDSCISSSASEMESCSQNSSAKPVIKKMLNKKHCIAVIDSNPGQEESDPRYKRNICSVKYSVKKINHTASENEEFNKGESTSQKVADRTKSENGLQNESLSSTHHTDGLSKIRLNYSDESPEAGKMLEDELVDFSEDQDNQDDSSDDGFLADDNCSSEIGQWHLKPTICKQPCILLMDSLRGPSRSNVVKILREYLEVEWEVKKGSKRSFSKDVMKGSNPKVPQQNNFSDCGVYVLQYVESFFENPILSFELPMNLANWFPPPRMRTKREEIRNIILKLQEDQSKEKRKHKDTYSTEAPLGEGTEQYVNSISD

[12] = target: T6, Sentrin-specific protease 6; experiment: inhibition of human SENP6 catalytic domain – biochemical, luminescence, set 2, SAR follow-up (AID 588598); assay type: functional
[13] = target: T5, Sentrin-specific protease 7; experiment: inhibition of human SENP7 cleavage activity – biochemical, luminescence, SAR follow-up (AID 504497); assay type: functional

Chain of Neurotensin receptor type 1 (P30989 whole entry): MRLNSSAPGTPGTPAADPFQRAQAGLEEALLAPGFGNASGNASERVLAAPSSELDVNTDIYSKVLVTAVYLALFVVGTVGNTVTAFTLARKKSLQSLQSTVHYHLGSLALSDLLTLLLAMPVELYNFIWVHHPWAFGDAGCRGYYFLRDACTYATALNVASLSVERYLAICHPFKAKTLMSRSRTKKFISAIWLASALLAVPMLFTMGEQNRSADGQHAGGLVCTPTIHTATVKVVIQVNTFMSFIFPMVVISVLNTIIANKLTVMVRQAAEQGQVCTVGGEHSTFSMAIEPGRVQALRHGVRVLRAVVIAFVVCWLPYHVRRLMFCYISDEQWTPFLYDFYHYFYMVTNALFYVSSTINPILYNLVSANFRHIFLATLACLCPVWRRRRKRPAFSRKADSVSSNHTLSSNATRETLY
Chain of DNA topoisomerase (A0A2S9PM60 whole entry): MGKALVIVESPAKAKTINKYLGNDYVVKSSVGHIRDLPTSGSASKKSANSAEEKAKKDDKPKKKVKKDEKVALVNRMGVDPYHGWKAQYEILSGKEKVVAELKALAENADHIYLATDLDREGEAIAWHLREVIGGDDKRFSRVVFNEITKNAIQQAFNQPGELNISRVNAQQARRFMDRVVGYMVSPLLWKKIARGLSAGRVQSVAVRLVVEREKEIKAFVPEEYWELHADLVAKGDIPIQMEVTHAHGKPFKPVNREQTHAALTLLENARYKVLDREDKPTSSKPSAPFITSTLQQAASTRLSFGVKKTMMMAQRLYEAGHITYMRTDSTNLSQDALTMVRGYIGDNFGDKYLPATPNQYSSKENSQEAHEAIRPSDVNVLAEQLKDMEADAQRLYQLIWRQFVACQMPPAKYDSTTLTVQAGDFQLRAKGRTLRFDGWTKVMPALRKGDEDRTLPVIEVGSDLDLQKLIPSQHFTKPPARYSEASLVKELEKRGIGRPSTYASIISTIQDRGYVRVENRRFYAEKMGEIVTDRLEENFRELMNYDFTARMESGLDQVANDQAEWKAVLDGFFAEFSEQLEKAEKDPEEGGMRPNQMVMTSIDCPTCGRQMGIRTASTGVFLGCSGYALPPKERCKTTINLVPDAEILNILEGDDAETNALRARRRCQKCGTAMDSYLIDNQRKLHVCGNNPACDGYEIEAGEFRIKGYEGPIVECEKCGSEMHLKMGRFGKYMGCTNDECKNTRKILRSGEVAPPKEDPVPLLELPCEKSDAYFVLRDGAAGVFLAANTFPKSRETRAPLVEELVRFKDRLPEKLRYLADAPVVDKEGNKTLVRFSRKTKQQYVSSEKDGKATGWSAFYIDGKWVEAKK
Chain of G-protein coupled receptor 55 (Q9Y2T6 whole entry): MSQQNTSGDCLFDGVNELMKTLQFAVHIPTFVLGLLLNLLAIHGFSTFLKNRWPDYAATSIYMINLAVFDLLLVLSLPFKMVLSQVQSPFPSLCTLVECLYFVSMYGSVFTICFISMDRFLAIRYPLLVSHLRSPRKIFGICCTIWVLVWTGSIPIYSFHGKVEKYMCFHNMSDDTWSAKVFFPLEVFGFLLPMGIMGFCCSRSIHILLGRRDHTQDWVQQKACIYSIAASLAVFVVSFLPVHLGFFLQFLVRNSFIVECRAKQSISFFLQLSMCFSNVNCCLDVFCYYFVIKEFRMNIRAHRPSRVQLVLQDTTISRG
Chain of Latent membrane protein 1 (P03230 whole entry): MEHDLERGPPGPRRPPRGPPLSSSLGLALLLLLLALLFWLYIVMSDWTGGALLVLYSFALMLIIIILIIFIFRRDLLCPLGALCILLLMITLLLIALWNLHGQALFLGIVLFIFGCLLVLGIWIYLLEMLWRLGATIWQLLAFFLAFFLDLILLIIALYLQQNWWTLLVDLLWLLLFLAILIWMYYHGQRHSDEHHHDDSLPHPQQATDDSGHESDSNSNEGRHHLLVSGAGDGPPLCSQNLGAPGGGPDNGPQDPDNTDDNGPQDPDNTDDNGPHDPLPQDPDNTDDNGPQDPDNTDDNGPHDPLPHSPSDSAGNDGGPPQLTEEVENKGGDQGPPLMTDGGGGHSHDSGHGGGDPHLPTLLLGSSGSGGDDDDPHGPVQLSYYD

`CC(C)(C)c1ccc(OCCn2nc(C(=O)O)c3ccccc3c2=O)cc1` was tested, and the AC50 (DNA topoisomerase) was 9120 nM (active).

With `O=CC1=C(c2ccccc2)Oc2ccccc2O1` the EC50 [1] was 2280 nM (active), the AC50 [2] was 2140 nM (active) and the EC50 [3] was 16000 nM (active). The AC50 (HeLa) was 23900 nM (active) and the IC50 [4] was 10400 nM (inactive).

For `O=C1N[C@@H](Cc2c[nH]c3ccccc23)COC(=O)[C@H](Cc2ccc(F)cc2)C/C=C\C[C@H]1CC(=O)N(CCO)Cc1ccccc1`, the AC50 [5] was 30100 nM (active).

`O=C(Nc1nc2ccc(Cl)cc2s1)c1nccs1` was tested, and the IC50 [6] was 3500 nM (active), the IC50 (Caspase-3 [7]) was 1980 nM (active) and the IC50 [8] was 2380 nM (active). The IC50 (Caspase-3 [9]) was 2400 nM (active), the IC50 [10] was 2900 nM (active) and the IC50 [11] was 3200 nM (active). The IC50 [12] was 2890 nM (active) and the IC50 [13] was 2500 nM (active).
